Measured values reported in ChEMBL document CHEMBL5055685, “Discovery of the First Potent IDO1/IDO2 Dual Inhibitors: A Promising Strategy for Cancer Immunotherapy” (J Med Chem, 2021).
pIC50: −log10 of the molar value. Activity calls are given as the source filed them. The calls are words filed in the database; no cut-off is given here.

How the values were obtained:
[1] = biological target: T1, Indoleamine 2,3-dioxygenase 1 (Homo sapiens, UniProt P14902); experiment: Inhibition of IDO1 (unknown origin) assessed as reduction in kynurenine formation using L-tryptophan as substrate by methylene blue reagent based assay relative to control; design: concentration or dose not given beside the values; settings: concentration not given here
Target sequence in this assay (P14902 whole entry, looked up): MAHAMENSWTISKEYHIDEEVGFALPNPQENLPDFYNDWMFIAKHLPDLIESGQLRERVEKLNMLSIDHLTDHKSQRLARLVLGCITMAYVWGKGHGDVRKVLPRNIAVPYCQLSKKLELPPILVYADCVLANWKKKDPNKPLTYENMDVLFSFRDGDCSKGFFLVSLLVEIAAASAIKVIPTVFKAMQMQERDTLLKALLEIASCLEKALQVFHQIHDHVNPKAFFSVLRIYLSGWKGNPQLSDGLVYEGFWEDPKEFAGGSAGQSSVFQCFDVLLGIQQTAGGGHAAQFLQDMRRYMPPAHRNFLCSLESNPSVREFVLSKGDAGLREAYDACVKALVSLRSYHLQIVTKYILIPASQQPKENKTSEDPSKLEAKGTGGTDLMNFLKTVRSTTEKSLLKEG

[2] = biological target: T2, Indoleamine 2,3-dioxygenase 2 (Homo sapiens) (UniProt Q6ZQW0); experiment: Inhibition of IDO2 (unknown origin) assessed as reduction in kynurenine formation using L-tryptophan as substrate by methylene blue reagent based assay relative to control; design: concentration or dose not given beside the values; settings: concentration not given here
T2 sequence (whole entry): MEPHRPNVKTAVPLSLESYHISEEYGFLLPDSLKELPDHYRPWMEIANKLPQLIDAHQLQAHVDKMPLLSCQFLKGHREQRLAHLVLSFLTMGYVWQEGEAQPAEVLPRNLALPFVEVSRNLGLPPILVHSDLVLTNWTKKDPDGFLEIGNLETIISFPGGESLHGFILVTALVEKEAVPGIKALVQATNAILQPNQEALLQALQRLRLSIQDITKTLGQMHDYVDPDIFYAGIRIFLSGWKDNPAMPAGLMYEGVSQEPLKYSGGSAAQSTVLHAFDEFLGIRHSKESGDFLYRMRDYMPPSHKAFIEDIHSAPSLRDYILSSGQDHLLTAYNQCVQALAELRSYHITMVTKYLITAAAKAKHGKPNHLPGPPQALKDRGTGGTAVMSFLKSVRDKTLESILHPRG

[3] = biological target: T1, Indoleamine 2,3-dioxygenase 1; experiment: Inhibition of IDO1 (unknown origin) assessed as reduction in kynurenine formation using L-tryptophan as substrate by methylene blue reagent based assay
Target sequence in this assay (P14902 whole entry): as the sequence (P14902 whole entry, looked up) above

[4] = biological target: T3, Indoleamine 2,3-dioxygenase 2 (Homo sapiens, UniProt Q6ZQW0); experiment: Inhibition of IDO2 (unknown origin) assessed as reduction in kynurenine formation using L-tryptophan as substrate by methylene blue reagent based assay
T3 sequence (Q6ZQW0 whole entry): T2 sequence (whole entry)

[5] = biological target: T1, Indoleamine 2,3-dioxygenase 1
Target sequence in this assay (P14902 whole entry): as the sequence (P14902 whole entry, looked up) above

HT-29 = experiment: Cytotoxicity against human HT-29 cells assessed as reduction in cell viability by CCK8 assay; type: functional, cell-based
CT26 [6] = experiment: Cytotoxicity against mouse CT26 cells assessed as reduction in cell viability by CCK8 assay; type: functional, cell-based
HCT-116 [7] = experiment: Cytotoxicity against human HCT-116 cells assessed as reduction in cell viability by CCK8 assay; type: functional, cell-based
CT26 [8] = experiment: Antitumor activity against mouse CT26 cells implanted in BALB/c mouse assessed as tumor growth inhibition at 50 mg/kg, ip bid for 28 days by vernier caliper method relative to control; type: functional; settings: CT26, 672 h, time 28 day, read-out: TGI
HCT-116 [9] = experiment: Antitumor activity against human HCT-116 cells xenografted in BALB/c nude mouse assessed as tumor growth inhibition at 300 mg/kg, ig bid for 21 days by vernier caliper method; type: functional, organism-based; settings: time 21.0 day
Mus musculus [10] = experiment: In vivo inhibition of IDO2 in BALB/c mouse xenografted with human HCT-116 cells assessed as suppression of IDO2 expression in tumor by immunohistochemical assay; type: functional, organism-based
Mus musculus [11] = experiment: In vivo inhibition of IDO1/IDO2 in BALB/c mouse xenografted with human HCT-116 cells assessed as downregulation of Foxp3 expression in tumor by immunohistochemical assay; type: functional, organism-based
Mus musculus [12] = experiment: In vivo inhibition of TDO in BALB/c mouse xenografted with human HCT-116 cells assessed as suppression of TDO expression in tumor by immunohistochemical assay; type: functional, organism-based
Mus musculus [13] = experiment: In vivo inhibition of IDO2 in BALB/c mouse xenografted with human HCT-116 cells assessed as suppression of IDO2 mRNA expression in tumor by quantitative RT-PCR analysis; type: functional, organism-based
Mus musculus [14] = experiment: In vivo inhibition of IDO1/IDO2 in BALB/c mouse xenografted with human HCT-116 cells assessed as downregulation of Foxp3 mRNA expression in tumor by quantitative RT-PCR analysis; type: functional, organism-based
Mus musculus [15] = experiment: In vivo inhibition of TDO in BALB/c mouse xenografted with human HCT-116 cells assessed as suppression of TDO mRNA expression in tumor by quantitative RT-PCR analysis; type: functional, organism-based
[16] = biological target: T1, Indoleamine 2,3-dioxygenase 1; experiment: Inhibition of IDO1 in IFNgamma-stimulated human HeLa cells assessed as reduction in kynurenine formation measured after 48 hrs by spectrophotometry
Target sequence in this assay (P14902 whole entry): as the sequence (P14902 whole entry, looked up) above

inhibition [1]	inhibition [2]	pIC50 [3]	pIC50 [4]	Structure (SMILES)	also measured
12%	14%			Cc1ccc(-c2cn(CCNc3nonc3/C(=N/O)Nc3ccc(F)c(Br)c3)nn2)cc1	
		6.75	5.93	CC(C)(OCCO)c1cn(CCNc2nonc2/C(=N/O)Nc2ccc(F)c(Br)c2)nn1	
				C[C@]1([C@H](O)C[C@H]2c3c(F)cccc3-c3cncn32)CC[C@H](O)CC1	pIC50 [5]: 8.15
8%	15%			COc1ccc(-c2cn(CCNc3nonc3/C(=N/O)Nc3ccc(F)c(Br)c3)nn2)cc1	
		7.21	6.06	O/N=C(\Nc1ccc(F)c(Br)c1)c1nonc1NCCn1cc(C2(O)CCCCC2)nn1	
37%	10%			O/N=C(\Nc1ccc(F)c(Br)c1)c1nonc1NCCn1cc(C2CC2)nn1	
17%	4%			O/N=C(\Nc1ccc(F)c(Br)c1)c1nonc1NCCn1cc(-c2ccccc2)nn1	
				NS(=O)(=O)NCCNc1nonc1/C(=N/O)Nc1ccc(F)c(Br)c1 [EPACADOSTAT]	pIC50 (HT-29): 4.20; pIC50 (CT26 [6]): 4.33; pIC50 (HCT-116 [7]): 4.43; inhibition in vivo at 50 mg/kg (CT26 [8]): 49.4%; Activity (HCT-116 [9]): inactive; inhibition (Mus musculus [10]): inactive; inhibition (Mus musculus [11]): inactive; inhibition (Mus musculus [12]): inactive; inhibition (Mus musculus [13]): inactive; inhibition (Mus musculus [14]): inactive; inhibition (Mus musculus [15]): inactive
38%	13%			O/N=C(\Nc1ccc(F)c(Br)c1)c1nonc1NCCn1cc(-c2cccc(O)c2)nn1	pIC50 [16]: 7.87
		7.29	6.16	CC(C)CC(C)(O)c1cn(CCNc2nonc2/C(=N/O)Nc2ccc(F)c(Br)c2)nn1 (stereo not given)	
		6.90	6.08	CCCCc1cn(CCNc2nonc2/C(=N/O)Nc2ccc(F)c(Br)c2)nn1	
		7.01	6.02	OCCCc1cn(CCNc2nonc2/C(=N/O)Nc2ccc(F)c(Br)c2)nn1	
		7.11	6.10	OCc1cn(CCNc2nonc2/C(=N/O)Nc2ccc(F)c(Br)c2)nn1	
